Test results: PubChem BioAssay AID1959 (Broad Institute, 2009)
Calls of active or inactive are those of the source.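 The calls were made as follows: active = growth-inhibition EC50 no more than tenfold above the top tested dose; inconclusive = flat fit between 30% and 70% inhibition, or unreliable fit; inactive = EC50 more than tenfold above the top tested dose.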

Each compound was assayed on E. coli NEB5alpha growth, BacTiter-Glo luminescence, 4 h (assay: Escherichia coli growth inhibition, dose response, counter-screen for MEX-5/POS-1 RNA-binding inhibitor project, luminescence, NEB5alpha (AID 1959);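 also: pUC19-transformed ampicillin-resistant cells grown in LB with ampicillin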).

Row | SMILES | EC50
1 | COC(=O)c1ccccc1-n1c(CCC(=O)O)ccc1-c1ccccc1 | > 11 µM (inactive)
2 | O=C(O)c1ccc(-n2cccc2/C=C2/SC(=O)N(CC(=O)N3CCCC3)C2=O)cc1 | > 11 µM (inactive)
3 | C=CCNC(=S)Nc1cc(Cl)ccc1OC | > 11 µM (inactive)
4 | Cc1cc(O)c(CN(C)C)c2c1C(=O)/C(=C/c1ccco1)O2 | > 11 µM (inactive)
5 | CC(=C\c1ccco1)/C=C1/SC(=S)N(CC(=O)O)C1=O | > 11 µM (inactive)
6 | CN1CCc2cccc3c2[C@H]1Cc1ccc(O)c(O)c1-3 | > 11 µM (inactive)
7 | CCC(=NCCCN(C)C)c1c(O)n(-c2ccc(OC)cc2)c(=O)[nH]c1=O | > 11 µM (inactive)
8 | Brc1cc2c(cc1C1Nc3ccccc3C3C=CCC31)OCO2 (stereo not drawn) | > 11 µM (inactive)
9 | CC(=NCCN1CCCCC1)c1c(O)n(-c2ccc(Cl)cc2)c(=O)[nH]c1=O | > 11 µM (inactive)
10 | CN=C1S/C(=C\c2ccc(N3CCCC3)c(F)c2)C(=O)N1C | > 11 µM (inactive)
11 | N=c1c(S(=O)(=O)c2ccc(Cl)cc2)cc2c(=O)n3ccccc3nc2n1C1CCCCC1 | > 11 µM (inactive)
12 | COc1ccc(C2C(C#N)=C(/N=C/N3CCN(C)CC3)OC3=C2C(=O)CC(C)(C)C3)cc1OC (stereo not drawn) | > 11 µM (inactive)
13 | Cc1cccc(N(C)S(=O)(=O)c2nnc(NC(=O)c3ccco3)s2)c1 | > 11 µM (inactive)
14 | O=C1C(=Cc2cccn2-c2ccccc2)C(=O)c2ccccc21 | > 11 µM (inactive)
15 | CCN1CCN(Cc2c(O)ccc3c2O/C(=C\c2ccc(C)cc2)C3=O)CC1 | > 11 µM (inactive)
16 | Cc1cc(=O)n2[nH]c(N)c(N=Nc3ccccc3)c2n1 | > 11 µM (inactive)
17 | CCOCCCNC(=O)CCC(=O)NNc1nc2ccccc2c2nc(C)nn12 | > 11 µM (inactive)
18 | CCCCC1=CC2=CC(=O)C(C)(OC(=O)c3ccc(Cl)nc3)C(=O)C2=CO1 (stereo not drawn) | > 11 µM (inactive)
19 | CCOC(=O)N1CCC(NC(=O)C(Cc2ccccc2)NC(=O)C2CCCCC2)CC1 (stereo not drawn) | > 11 µM (inactive)
20 | Cc1nc(S/C(C(=O)O)=C2/C(=O)Nc3ccccc32)n[nH]1 | > 11 µM (inactive)
21 | COc1cc2c(cc1OC)C(c1ccc(-c3ccc(Cl)c(Cl)c3)o1)=NCC2 | > 11 µM (inactive)
22 | CN1C(=O)C(=Cc2ccc(N3CCCCC3)o2)C(=O)N(C)C1=S | > 11 µM (inactive)
23 | CCCCC1(C)OC(=O)C(=Cc2ccc(N(CC)CC)cc2)C(=O)O1 (stereo not drawn) | > 11 µM (inactive)

Row | SMILES | EC50
24 | Nc1c(C(=O)c2ccc(Br)s2)oc2ccccc12 | > 11 µM (inactive)
25 | CCOn1c(=O)c(-c2cc3ccccc3o2)[n+]([O-])c2ccccc21 | > 11 µM (inactive)
26 | COc1ccc(N2C(=O)NC(=O)/C(=C\c3cn(C)c4ccccc34)C2=O)cc1 | > 11 µM (inactive)
27 | COc1ccc(Nc2nc(-c3cccnc3)nc3ccccc23)cn1 | > 11 µM (inactive)
28 | Cc1nn(-c2ccccc2)c(N2CCCC2)c1/C=C1\N=C(c2ccc(F)cc2)OC1=O | > 11 µM (inactive)
29 | CN1C(=O)/C(=C\c2ccc(N(C)C)cc2)OC1=S | > 11 µM (inactive)
30 | CCN(CC)c1ccc(N=Cc2c(O)n(Cc3ccccc3)c(=O)[nH]c2=O)cc1 | > 11 µM (inactive)
31 | Oc1ccc(C[C@H]2NCCc3cc(O)c(O)cc32)cc1O | > 11 µM (inactive)
32 | COc1ccc(CC(=O)NNC2=Nc3cccc4cccc2c34)cc1 | > 11 µM (inactive)
33 | Fc1ccc2c(c1)C1C=CCC1C(c1cc3c(cc1Br)OCO3)N2 (stereo not drawn) | > 11 µM (inactive)
34 | CCOc1ccc(S(=O)(=O)Nc2cc(Sc3ncn[nH]3)c3oc(=O)sc3c2)cc1 | > 11 µM (inactive)
35 | Cc1[nH]nc(NNC(=O)c2ccccc2)c1[N+](=O)[O-] | > 11 µM (inactive)
36 | S=C1NC2(CCS1)Oc1ccccc1C1CC(c3ccccc3)=NN12 (stereo not drawn) | > 11 µM (inactive)
37 | COCCCNC(=O)C(C#N)c1nc2ccccc2nc1N1CCCC1 (stereo not drawn) | > 11 µM (inactive)
38 | CC1=NN(c2ccc(C(=O)O)c(N)c2)C(=O)C1 | > 11 µM (inactive)
39 | CC1(C)CC(=O)C2=C(C1)OC(/N=C/N1CCOCC1)=C(C#N)C2c1ccccc1 (stereo not drawn) | > 11 µM (inactive)
40 | NS(=O)(=O)c1ccc(N=Nc2c[nH]c(=O)c(O)c2)cc1 | > 11 µM (inactive)
41 | O=C(NN1C(=O)c2ccccc2NC1c1ccccn1)c1ccc([N+](=O)[O-])cc1 (stereo not drawn) | > 11 µM (inactive)
42 | COc1ccc(CCNC(=O)c2nn(C)c3c2CS(=O)(=O)c2ccccc2-3)cc1OC | > 11 µM (inactive)
43 | O=c1[nH]c(CN2CCc3ccccc3C2)nc2ccccc12 | > 11 µM (inactive)
44 | CC1CCCN(c2nc3ccccc3nc2C(C#N)S(=O)(=O)c2cccs2)C1 (stereo not drawn) | > 11 µM (inactive)
45 | Cc1nc(S/C(=C/c2ccc(-c3ccc(Cl)cc3)o2)C(=O)O)n[nH]1 | > 11 µM (inactive)
46 | O=C(OCCc1ccccc1)c1cc(O)c(O)c(O)c1 | > 11 µM (inactive)

Row | SMILES | EC50
47 | CCc1c(C(=O)NNC(=S)Nc2ccc(S(=O)(=O)Nc3ncccn3)cc2)csc1C | > 11 µM (inactive)
48 | COc1cccc(N=Nc2c(=O)[nH]n3c(=O)cc(C)[nH]c23)c1 | > 11 µM (inactive)
49 | CCOC(=O)c1cc(CC)sc1/N=C/c1c(O)[nH]c(=S)[nH]c1=O | > 11 µM (inactive)
50 | COc1ccc(CNC(=O)COC(=O)c2cc(-c3ccc(Cl)s3)nc3ccccc23)cc1 | > 11 µM (inactive)
51 | CCC1(c2ccccc2)NC(=O)N(CC(=O)NCc2ccc(F)cc2)C1=O (stereo not drawn) | > 11 µM (inactive)
52 | COc1ccccc1Oc1cn[nH]c1-c1ccc(OCC(=O)NN)cc1O | > 11 µM (inactive)
53 | O=C(N/N=C/c1c(O)n(CCc2ccccc2)c(=O)[nH]c1=O)c1ccncc1 | > 11 µM (inactive)
54 | Cc1ccn2c(=O)nc(SCC(=O)Nc3cc(C)on3)nc2c1 | > 11 µM (inactive)
55 | CCN(CC)c1ccc(N=Cc2c(O)n(-c3ccc(OC)cc3)c(=O)[nH]c2=O)cc1 | > 11 µM (inactive)
56 | CC1(C)CC(=O)C2=C(C1)OC(/N=C/N1CCCC1)=C(C#N)C2c1ccccc1 (stereo not drawn) | > 11 µM (inactive)
57 | COC(=O)Cn1cc(/C=C2\C(=O)NC(=O)N(c3ccc(OC)cc3)C2=O)c2ccccc21 | > 11 µM (inactive)
58 | CC1(OC(=O)c2ccco2)C(=O)C=C2C=C(c3ccsc3)OC=C2C1=O (stereo not drawn) | > 11 µM (inactive)
59 | O=C1NC(=O)C(=Cc2cn(CCOc3ccc4c(c3)OCO4)c3ccccc23)C(=O)N1 | > 11 µM (inactive)
60 | Cn1c(=O)[nH]c2cc(Cl)cnc21 | > 11 µM (inactive)
61 | NS(=O)(=O)c1ccc(NC(=O)COC(=O)c2cn(-c3ccccc3)nc2-c2ccc(F)cc2)cc1 | > 11 µM (inactive)
62 | COC(=O)c1c(=O)n(O)c2ccc(OC)cc2[n+]1[O-] | > 11 µM (inactive)
63 | COc1ccccc1C(=O)Nc1ccnn1C1CCN(C(C)CSC)CC1 (stereo not drawn) | > 11 µM (inactive)
64 | Cc1c(C=N)c(O)n(C)c(=O)c1C#N | > 11 µM (inactive)
65 | Cc1ccc(NC(=O)COc2ccc(/C=C3/SC(=Nc4ccccc4)N(Cc4cccnc4)C3=O)cc2)cc1 | > 11 µM (inactive)
66 | Cc1[nH][nH]c(=O)c1N=Nc1ccc(S(N)(=O)=O)cc1 | > 11 µM (inactive)
67 | Cc1cc(/C=C2\C(=O)NC(=O)N(c3cccc(F)c3)C2=O)c(C)n1-c1ccc(C(=O)O)c(Cl)c1 | > 11 µM (inactive)
68 | CN1CCN(C2=C(Cl)C(=O)C(c3cnc(N4CCCCC4)s3)=C(Cl)C2=O)CC1 | > 11 µM (inactive)
